PubChem BioAssay (NCI)
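Dose response: 5 concentrations. Exposure: 48 h. Format: 96-well plates. Endpoint: linear interpolation; highest concentration if not reached. GI50: concentration for 50% inhibition of growth. TGI: total growth inhibition.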

How the values were obtained:
Assay in all cases: growth of human tumour cells (NCI), 48 h
SK-MEL-5 melanoma = test system: SK-MEL-5 melanoma
T-47D breast = test system: T-47D breast
HCT-116 colon = test system: HCT-116 colon
A549 NSCLC = test system: A549 NSCLC
IGROV1 ovarian = test system: IGROV1 ovarian
RPMI-8226 leukemia = test system: RPMI-8226 leukemia
MALME-3M melanoma = test system: MALME-3M melanoma
SNB-19 CNS = test system: SNB-19 CNS
CAKI-1 renal = test system: CAKI-1 renal
K-562 leukemia = test system: K-562 leukemia

| Compound | TGI (SK-MEL-5 melanoma) | TGI (T-47D breast) | TGI (HCT-116 colon) | TGI (A549 NSCLC) | TGI (IGROV1 ovarian) | TGI (RPMI-8226 leukemia) | TGI (MALME-3M melanoma) | TGI (SNB-19 CNS) | TGI (CAKI-1 renal) | TGI (K-562 leukemia) | GI50 (SK-MEL-5 melanoma) | GI50 (T-47D breast) | GI50 (HCT-116 colon) | GI50 (A549 NSCLC) | GI50 (IGROV1 ovarian) | GI50 (RPMI-8226 leukemia) | GI50 (MALME-3M melanoma) | GI50 (SNB-19 CNS) | GI50 (CAKI-1 renal) | GI50 (K-562 leukemia) |
| --- | --- | --- | --- | --- | --- | --- | --- | --- | --- | --- | --- | --- | --- | --- | --- | --- | --- | --- | --- | --- |
| OCCCN=C1CCCCC1 | > 100 µM | > 100 µM | > 100 µM | > 100 µM | > 100 µM | > 100 µM | > 100 µM | > 100 µM | > 100 µM | > 100 µM |  |  |  |  |  |  |  |  |  |  |
| COc1cc2ncn(-c3cc(OCc4ccccc4C(F)(F)F)c(C(N)=O)s3)c2cc1OC | > 25 µM | > 25 µM | > 25 µM | > 25 µM | > 25 µM | > 25 µM | > 25 µM | > 19.3 µM | > 25 µM | > 25 µM | 0.106 µM | 4.42 µM | 0.246 µM | 0.204 µM | 0.933 µM | 0.278 µM | 14.5 µM | 2.4 µM | 3.88 µM | 0.137 µM |
| O=[N+]([O-])c1cccc(/C=N/Nc2ccc3ccccc3n2)c1O | 3.45 µM | 4.89 µM | 4.77 µM | > 70.8 µM | > 42.7 µM | 24.3 µM | 11.3 µM | 47.4 µM | 16.5 µM | > 100 µM |  |  |  |  |  |  |  |  |  |  |
| S=c1ssnc1-c1cc2ccccc2o1 | 26.7 µM | > 100 µM | 36.8 µM | 32.1 µM | 29 µM | 25.7 µM | 46.8 µM | 36.8 µM | 26.1 µM | > 100 µM | 13.6 µM | 21.9 µM | 9.3 µM | 16.3 µM | 4.09 µM | 2.36 µM | 20.7 µM | 16.7 µM | 10 µM | 22.5 µM |
| Cn1c(=O)c(-c2ccccc2Cl)cc2cnc(NC3CCOCC3)nc21 | > 25 µM | > 25 µM | > 25 µM | > 25 µM | > 25 µM | > 25 µM | > 22.3 µM | > 25 µM | > 25 µM | > 25 µM | 11 µM | 18.1 µM | 8.05 µM | 18.2 µM | 9.42 µM | > 15.7 µM | 7.08 µM | > 25 µM | 6.58 µM | 9.36 µM |
| CC1(C)CC(O)CC(C)(C)N1O | > 100 µM | > 100 µM | > 100 µM | > 100 µM | > 100 µM | > 100 µM | > 100 µM | > 100 µM | > 100 µM | > 100 µM |  |  |  |  |  |  |  |  |  |  |
| CC(C)(C)N/N=C(/Cc1nc2c3c(ccc2[nH]c1=O)C(=O)c1ccccc1C3=O)C(=O)NC1=C(Cl)C(=O)c2ccccc2C1=O | 27 µM | > 100 µM | > 100 µM | > 100 µM | > 100 µM | > 100 µM | 37.8 µM | > 100 µM | > 100 µM | > 100 µM |  |  |  |  |  |  |  |  |  |  |
| COc1cc(N=Nc2cc(Cc3ccc(N(C)C)cc3)c(N)cc2N(C)C)c2ncccc2c1 | 0.714 µM | 2 µM | 1.19 µM | 2.39 µM | 1.57 µM | 2.1 µM | 2.28 µM | 3.71 µM | 2.37 µM | 1.74 µM | 0.227 µM | 0.211 µM | 0.0426 µM | 0.494 µM | 0.364 µM | 0.313 µM | 0.621 µM | 0.577 µM | 0.408 µM | 0.139 µM |
